Here are results for twelve compounds from patent US12036190B2, “Methods and compositions for the treatment of cytoplasmic glycogen storage disorders” (Duke University, priority 2015, dated 2024).

Series [1] relates to autophagy. Particulars: Table 4; drugs known to enhance autophagy; cited from earlier work.
Series [2] deals with G6pc siRNA knockdown AML-12 cells. As to conditions: for Lipid Reduction Scoring, High dose / Lipid Reduction Scoring, Medium dose / Lipid Reduction Scoring, Low dose: Oil Red O, duplicate; for Lipid Reduction Scoring, Medium dose: medium concentration of Table 6; for Lipid Reduction Scoring, Low dose: low concentration of Table 6. The source says: In brief, a wide array of drugs was selected, including those that modulate autophagy via the […] pathway, those that do so through AMPK modulation to act through mTORC1, and those using yet-undetermined pathways. Analysis of additional literature led to the selection of three concentrations of each compound to be tested in cell culture using the G6pc siRNA knockdown AML-12 mouse hepatocyte cell line model of GSD Ia as an initial screen for the drugs.
Drug concentrations were chosen based on similarity to published concentrations in either cell culture models resulting in target effects or autophagy, or in vivo extracellular fluid concentrations following animal treatments. The latter case is noted with the fluid type. Concentrations used in our in vitro AML-12 cell culture treatments are listed as the low, medium, and high concentrations that were screened.
The first test using AML-12 cells was the Oil Red 0 stain to examine the presence of lipid vacuoles in cells given the treatments.
G6pc siRNA knockdown AML-12 cells were given three different doses of each drug treatment. After 72 hours of growth, the media was changed to ketogenic media and appropriate quantities of each drug were added. This was performed in duplicate. Oil Red 0 staining was then performed and bright field images acquired at 10× magnification.
Drug treatments at three doses each were performed on G6pc siRNA knockdown AML-12 cells. Following oil red 0 staining the whole plates were evaluated visually for reductions in lipid accumulation. Treatments were performed in duplicate. —/0/+/++/+++ indicates the degree of improvement, or lipid reduction, caused by the treatment, with + indicating positive benefits.

Series [3] concerns G6pc knockdown AML-12 cells. Kind of series: LC3 Western blot of drug-treated G6pc knockdown AML-12 cells. It counts as cell-based, mouse. Particulars: 24 hours; conditions with optimal effects in the Oil Red O screen. As to the method: FIG. 27 illustrates LC3 Western blot of drug-treated G6pc knockdown AML-12 cells. Western blotting was performed on AML-12 cells incubated for 24 hours with the described drug conditions. LC3 was quantified and normalized against each condition's β-actin protein quantification.
In addition to Oil Red O staining, cells were analyzed via Western blots for restored LC3 expression for each drug, under the conditions that had optimal effects in the Oil Red O screen (FIG. 27). Since the Western antibody previously used successfully for rapamycin treatment LC3 blots had been discontinued by the manufacturer, we tested two alternative antibodies and chose the one from Cell Signaling Technologies because it gave the strongest signal-to-noise ratio under our experimental conditions.
Western blotting was performed on AML-12 cells incubated for 24 hours with the described drug conditions. LC3 was quantified and normalized against each condition's β-actin protein quantification.

Series [4] concerns G6pc−/− knockout mice. The experiment in a line: Bezafibrate treatment of G6pc−/− mice. Type of series: in vivo.
Method: G6pc−/− knockout mice were administered intraperitoneal injections of bezafibrate 25 mg/kg/day suspended in 10% DMSO/90% PBS IP for 3 days.
For series [5], the system named is GAA knockout (KO) mice. The experiment in a line: β2 agonist with ERT (rhGAA) in GAA-KO mice with Pompe disease. As to conditions: for CI-MPR (M6PR) expression: muscle; for glycogen content in skeletal muscle: β2 agonist added to ERT, versus ERT alone.
Series [6] deals with murine model for hepatosteatosis. Type of series: in vivo, mouse.
Series [7] concerns HepG2 cells. Kind of series: LC3-II in HepG2 cells after clenbuterol. It counts as cell-based. The source says:
(§1) Asterisk indicates p<0.05.
(§2) Thus, clenbuterol, a long-acting β-agonist with proven safety for long-term treatment of mice, represents a leading candidate among drugs to be considered for the manipulation of autophagy in GSD Ia (Table 2).

Series [8] deals with mouse primary hepatocytes. Kind of series: LC3-II in mouse primary hepatocytes after clenbuterol. Type of series: cell-based. Particulars: 24 hours.
From the text: as §1, §2

Series [9] concerns patients with late-onset Pompe disease. As to conditions: adjunctive to ERT; cited from earlier work.

“Also recorded” adds a separate entry of the source. Like-named read-outs stand apart in the source and are kept apart here.

With Thyroid hormone, in series [1], the Effect entry was “Increased autophagy, reduced steatosis”.

Turning to `COc1ccc(CCN(C)CCCC(C#N)(c2ccc(OC)c(OC)c2)C(C)C)cc1OC` (centres unmarked) [Verapamil], in [2] (high concentration of Table 6), the “cell survival, High dose” value is “Very high death” and the “Lipid Reduction Scoring, High dose” value was “− −”. Moreover, in [2], the “Lipid Reduction Scoring, Medium dose” value is listed as “+”. The Effect entry in series [1] is “Induced autophagy, reduced cytosolic calcium”.

In the case of `Cc1c(C)c2c(c(C)c1O)CC[C@@](C)(CCC[C@H](C)CCC[C@H](C)CCCC(C)C)O2` [α-Tocopherol], in series [2], the “Lipid Reduction Scoring, Low dose” value is 0 (Spotty +) and the “Lipid Reduction Scoring, Medium dose” value is reported as “− (Spotty ++)”.

Take `CC#C[C@]1(O)CC[C@H]2[C@@H]3CCC4=CC(=O)CCC4=C3[C@@H](c3ccc(N(C)C)cc3)C[C@@]21C` [Mifepristone]: in series [2], the “cell survival, High dose” value is given as “Great survival”; the “Lipid Reduction Scoring, Low dose” value is “+”; the “Lipid Reduction Scoring, Medium dose” value is “+ (Spotty ++)”. In series [2] (high concentration of Table 6), the “Lipid Reduction Scoring, High dose” value was “++”. The Effect entry in [1] was “Activated autophagy, inhibited FXR”. Further, the “LC3 normalized against β-actin (Western blot)” value in series [3] was “increase in LC3 autophagic marker”.

On to `O=C(O)CCCCC1CCSS1` (stereo not drawn) [α-Lipoic acid, α-lipoic acid], for which, in series [2] (high concentration of Table 6), the “Lipid Reduction Scoring, High dose” value is given as 0. For the same compound, the “Lipid Reduction Scoring, Low dose” value in series [2] is reported as “+”. Further, in series [1], the Effect result is reported as “Activated autophagy, reduced intercellular”.

Take `CN(C)C(=N)N=C(N)N` [Metformin]: the “Lipid Reduction Scoring, High dose” value in series [2] (high concentration of Table 6) is given as 0. The “Lipid Reduction Scoring, Low dose” value in [2] was “+”. For the same compound, in series [1], the Effect entry is “Activated autophagy, activated AMPK in vitro”.

As for `CC(C)(Oc1ccc(CCNC(=O)c2ccc(Cl)cc2)cc1)C(=O)O` [Bezafibrate, bezafibrate], the “Lipid Reduction Scoring, High dose” value in [2] (high concentration of Table 6) is given as “++”. The “Lipid Reduction Scoring, Medium dose” value in [2] was “+”. Besides, the “kidney weight as a percentage of total body weight” value in series [4] (bezafibrate 25 mg/kg/day IP, p<0.046) is given as “very small but quantitatively significant increase”. The compound further gave a blood glucose level in series [4] (bezafibrate-treated affected mice, below threshold of detection) of less than 20 mg/dL.

`CC(C)(C)NCC(O)c1cc(Cl)c(N)c(Cl)c1` (centres unmarked) [Clenbuterol, clenbuterol]: the muscle hypertrophy result in [5] (GAA-KO mice) is listed as “induce muscle hypertrophy”. For the same compound, the “CI-MPR (M6PR) expression” value was “enhance CI-MPR expression” in series [5] (GAA-KO mice) and “increase the expression of CI-MPR; also recorded: increased CI-MPR expression; also recorded: enhancing M6PR expression” in series [5] (GAA-KO mice, listed as clenbuterol). Besides, the “uptake of rhGAA” value in series [5] (preclinical experiments) was “increased the uptake of rhGAA”. In series [5], the “glycogen content in skeletal muscle” value is listed as “lower glycogen content; also recorded: decreased glycogen storage”. In addition, the autophagy result in series [6] (murine model for hepatosteatosis) was “induce autophagy”. In series [6] (preclinical experiments), the hepatosteatosis result is reported as “reduced hepatosteatosis”. Further, the “lowest concentration at which LC3-II is increased” value in series [7] (24 hours) is given as 300 nM. In addition, the LC3-II result in series [7] (24 hours after addition) and in [8] was “increases LC3-II” throughout.

With `CN(C)c1ccc2nc3ccc(=[N+](C)C)cc-3sc2c1` [Methylene Blue, Methylene blue], in series [2] (high concentration of Table 6), the “Lipid Reduction Scoring, High dose” value was “− − −”. In addition, in [2], the “Lipid Reduction Scoring, Low dose” value was “+” and the “Lipid Reduction Scoring, Medium dose” value is given as “− −”. Moreover, the Effect result in [1] was “Activated autophagy, inhibited hepatosteatosis”.

Regarding `Oc1ccc(C=Cc2cc(O)cc(O)c2)cc1` [Resveratrol], the “Lipid Reduction Scoring, High dose” value in [2] (high concentration of Table 6) is on record as “− − −”. Further, in series [2], the “Lipid Reduction Scoring, Low dose” value is recorded as “+” and the “Lipid Reduction Scoring, Medium dose” value is listed as 0 (Spotty ++). The Effect entry in series [1] is “Enhanced FAO , reduced”.

For `CC(C)(C)NCC(O)c1ccc(O)c(CO)c1` (centres unmarked) [Albuterol, albuterol], in [5], the “glycogen content in skeletal muscle” value was “lower glycogen content”. The “6 minute walk test performance” value in [9] is listed as “improve the 6 minute walk test performance”.

Consider `OC[C@H]1O[C@H](O[C@H]2O[C@H](CO)[C@@H](O)[C@H](O)[C@H]2O)[C@H](O)[C@@H](O)[C@@H]1O` [Trehalose], for which, in series [2], the “cell survival, High dose” value is recorded as “High death”; the “Lipid Reduction Scoring, Low dose” value is listed as “+”; the “Lipid Reduction Scoring, Medium dose” value is recorded as “− −”. Moreover, the Effect entry in series [1] is reported as “Stimulated autophagy”.
